target: T1, recombinant human GST-SYK (Homo sapiens, UniProt P43405); assay: Homogeneous Time-Resolved Fluorescence (HTRF) assay for the recombinant human Syk enzyme; assay type: biochemical; details: HTRF assay, recombinant human GST-SYK; IC50 given as class symbols; read-out: rhSYK Activity
T1 construct: purchased Carna Biosciences 08-176
Summary of the method: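 HTRF read-out: Europium-anti-phosphotyrosine antibody (2 nM) plus SA-APC (70 nM) in EDTA-containing buffer quenched the reaction, and signal was read after 30 minutes. Kinase step used […], 250 nM biotinylated peptide, 25 μM ATP, 5 mM Mg, 45′ at room temperature.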

Cc1cc(Nc2nccc(C(F)(F)F)n2)cc(-c2ccc(NC3CCNC3=O)nc2)c1 (stereo not drawn) [Example 7.22, 3-{[5-(3-methyl-5-{[4-(trifluoromethyl)pyrimidin-2-yl]amino}phenyl)pyridin-2-yl]amino}pyrrolidin-2-one] and CC(=O)Nc1cc(Nc2nccc(C(F)(F)F)n2)cc(-c2ccc(NC3CCNC3=O)nc2)c1 (stereo not drawn) [Example 7.3, N-(3-{6-[(2-oxopyrrolidin-3-yl)amino]pyridin-3-yl}-5-{[4-(trifluoromethyl)pyrimidin-2-yl]amino}phenyl)acetamide] cannot be ordered by IC50: less than 100 nM for the first, less than 100 nM for the second.

First: Cc1cc(Nc2nccc(C(F)(F)F)n2)cc(-c2ccc(N3CCC(C(N)=O)CC3)nc2)c1 [Example 7.32, 1-[5-(3-methyl-5-{[4-(trifluoromethyl)pyrimidin-2-yl]amino}phenyl)pyridin-2-yl]piperidine-4-carboxamide]
Second: Cc1cc(Nc2nccc(C(F)(F)F)n2)cc(-c2ccc(N3CCC(F)(F)CC3)nc2)c1 [Example 7.56, N-{3-[6-(4,4-difluoropiperidin-1-yl)pyridin-3-yl]-5-methylphenyl}-4-(trifluoromethyl)pyrimidin-2-amine]
The IC50 of the first is lower: less than 100 nM for the first, 100 to 1000 nM for the second. The first is the more potent here.

Cc1cc(Nc2nccc(C(F)F)n2)cc(-c2ccc(C(C)(O)C3CCC(C(=O)O)CC3)nc2)c1 (single isomer, unassigned) [Example 9.31, trans-4-{(1R or 1S)-1-[5-(3-{[4-(difluoromethyl)pyrimidin-2-yl]amino}-5-methylphenyl)pyridin-2-yl]-1-hydroxyethyl}cyclohexanecarboxylic acid] and COc1ccnc(Nc2cc(C)cc(-c3ccc(C(C)(O)[C@H]4CC[C@H](C(=O)O)CC4)nc3)c2)n1 (single isomer, unassigned) [Example 9.17, trans-4-[(1R or 1S)-1-hydroxy-1-(5-{3-[(4-methoxypyrimidin-2-yl)amino]-5-methylphenyl}pyridin-2-yl)ethyl]cyclohexanecarboxylic acid] cannot be ordered by IC50: less than 100 nM for the first, less than 100 nM for the second.

First: CCOC(=O)C1CCCC(O)(c2cncc(-c3cc(C)cc(Nc4nccc(C(F)(F)F)n4)c3)c2)C1 (stereo not drawn) [Example 9.77, ethyl 3-hydroxy-3-[5-(3-methyl-5-{[4-(trifluoromethyl)pyrimidin-2-yl]amino}phenyl)pyridin-3-yl]cyclohexanecarboxylate]
Second: CC(=O)c1cncc(-c2cc(C)cc(Nc3nccc(C(F)(F)F)n3)c2)c1 [Example 2.48, 1-[5-(3-methyl-5-{[4-(trifluoromethyl)pyrimidin-2-yl]amino}phenyl)pyridin-3-yl]ethanone]
The IC50 of the first is higher: 100 to 1000 nM for the first, less than 100 nM for the second.

COc1cncc(-c2cc(C)cc(Nc3nccc(C(F)(F)F)n3)c2)c1 [Example 2.58, N-[3-(5-methoxypyridin-3-yl)-5-methylphenyl]-4-(trifluoromethyl)pyrimidin-2-amine] and Cc1cc(Nc2nccc(C(F)(F)F)n2)cc(-c2cncc(C(C)(O)CO)c2)c1 (stereo not drawn) [Example 9.68, 2-[5-(3-methyl-5-{[4-(trifluoromethyl)pyrimidin-2-yl]amino}phenyl)pyridin-3-yl]propane-1,2-diol] cannot be ordered by IC50: less than 100 nM for the first, less than 100 nM for the second.

First: Cc1cc(Nc2nccc(C(F)(F)F)n2)cc(-c2ccnc(NCc3cn(C)cn3)c2)c1 [Example 15.40, N-[3-methyl-5-(2-{[(1-methyl-1H-imidazol-4-yl)methyl]amino}pyridin-4-yl)phenyl]-4-(trifluoromethyl)pyrimidin-2-amine]
Second: Cc1cc(Nc2nccc(C(F)(F)F)n2)cc(-c2ccnc(NC(C)(C)CO)c2)c1 [Example 15.51, 2-methyl-2-{[4-(3-methyl-5-{[4-(trifluoromethyl)pyrimidin-2-yl]amino}phenyl)pyridin-2-yl]amino}propan-1-ol]
The IC50 of the first is higher: 100 to 1000 nM for the first, less than 100 nM for the second.

Cc1cc(Nc2nccc(C(F)(F)F)n2)cc(-c2ccnc(N3CCN(S(C)(=O)=O)CC3)c2)c1 [Example 15.63, N-(3-methyl-5-{2-[4-(methylsulfonyl)piperazin-1-yl]pyridin-4-yl}phenyl)-4-(trifluoromethyl)pyrimidin-2-amine] and Cc1cc(Nc2nccc(C(F)(F)F)n2)cc(-c2ccnc(N3CCN(C)CC3)c2)c1 [Example 15.61, N-{3-methyl-5-[2-(4-methylpiperazin-1-yl)pyridin-4-yl]phenyl}-4-(trifluoromethyl)pyrimidin-2-amine] fall in the same range of IC50: 100 to 1000 nM for the first, 100 to 1000 nM for the second.

Cc1cc(Nc2nccc(C(F)(F)F)n2)cc(-c2ccc(NC(C)(c3nnn[nH]3)C(C)(C)C)nc2)c1 (stereo not drawn) [Example 18.9, N-[3-methyl-5-(6-{[1,2,2-trimethyl-1-(1H-tetrazol-5-yl)propyl]amino}pyridin-3-yl)phenyl]-4-(trifluoromethyl)pyrimidin-2-amine] and Cc1cc(Nc2nccc(C(F)(F)F)n2)cc(-c2ccc(C(C)(O)CO)nc2)c1 (stereo not drawn) [Example 9.56, 2-[5-(3-methyl-5-{[4-(trifluoromethyl)pyrimidin-2-yl]amino}phenyl)pyridin-2-yl]propane-1,2-diol] cannot be ordered by IC50: less than 100 nM for the first, less than 100 nM for the second.

Cc1cc(Nc2nccc(C(F)(F)F)n2)cc(-c2ccc(S(=O)(=O)NC3CCNC3=O)nc2)c1 (stereo not drawn) [Example 21.3, 5-(3-methyl-5-{[4-(trifluoromethyl)pyrimidin-2-yl]amino}phenyl)-N-(2-oxopyrrolidin-3-yl)pyridine-2-sulfonamide] and Cc1cc(Nc2nccc(C(F)(F)F)n2)cc(-c2ccc(C(=O)N3CCNC(=O)CC3)nc2)c1 [Example 16.19, 1-{[5-(3-methyl-5-{[4-(trifluoromethyl)pyrimidin-2-yl]amino}phenyl)pyridin-2-yl]carbonyl}-1,4-diazepan-5-one] cannot be ordered by IC50: less than 100 nM for the first, less than 100 nM for the second.

Cc1cc(Nc2nccc(C(F)(F)F)n2)cc(-c2ccc(N3CCCC4(CCCCO4)C3)nc2)c1 (stereo not drawn) [Example 7.116, N-{3-methyl-5-[6-(1-oxa-8-azaspiro[5.5]undec-8-yl)pyridin-3-yl]phenyl}-4-(trifluoromethyl)pyrimidin-2-amine] and Cc1cc(Nc2nccc(C(F)(F)F)n2)cc(-c2ccc(N3CCCC4(CCOC4=O)C3)nc2)c1 (stereo not drawn) [Example 7.14, 7-[5-(3-methyl-5-{[4-(trifluoromethyl)pyrimidin-2-yl]amino}phenyl)pyridin-2-yl]-2-oxa-7-azaspiro[4.5]decan-1-one] fall in the same range of IC50: 100 to 1000 nM for the first, 100 to 1000 nM for the second.

First: Cc1cc(Nc2nccc(C(F)(F)F)n2)cc(-c2ccc(CNC(N)=O)nc2)c1 [Example 17.2, 1-{[5-(3-methyl-5-{[4-(trifluoromethyl)pyrimidin-2-yl]amino}phenyl)pyridin-2-yl]methyl}urea]
Second: Cc1cc(Nc2nccc(C(F)(F)F)n2)cc(-c2ccc(C(=O)NCCS(C)(=O)=O)nc2)c1 [Example 16.64, N-[2-(methylsulfonyl)ethyl]-5-(3-methyl-5-{[4-(trifluoromethyl)pyrimidin-2-yl]amino}phenyl)pyridine-2-carboxamide]
The IC50 of the first is lower: less than 100 nM for the first, 100 to 1000 nM for the second. The first is the more potent here.

First: COc1cccc(-c2cccc(Nc3nccc(C(F)(F)F)n3)c2)n1 [Example 2.3, N-[3-(6-methoxypyridin-2-yl)phenyl]-4-(trifluoromethyl)pyrimidin-2-amine]
Second: Cc1cc(Nc2nccc(C(F)(F)F)n2)cc(-c2ccc(C(C)(O)C(F)(F)F)nc2)c1 (stereo not drawn) [Example 2.115, 1,1,1-trifluoro-2-[5-(3-methyl-5-{[4-(trifluoromethyl)pyrimidin-2-yl]amino}phenyl)pyridin-2-yl]propan-2-ol]
The IC50 of the first is higher: 1000 to 10000 nM for the first, 100 to 1000 nM for the second. The second is the more potent here.

First: COc1nc(Nc2cc(C)cc(-c3ccc(N[C@H]4CC[C@H](C(=O)O)CC4)nc3)c2)ncc1F [Example 2.121, trans-4-[(5-{3-[(5-fluoro-4-methoxypyrimidin-2-yl)amino]-5-methylphenyl}pyridin-2-yl)amino]cyclohexanecarboxylic acid]
Second: Cc1cc(Nc2nccc(C(F)(F)F)n2)cc(-c2ccc(C(=O)NC3CCOC3)nc2)c1 (stereo not drawn) [Example 16.33, 5-(3-methyl-5-{[4-(trifluoromethyl)pyrimidin-2-yl]amino}phenyl)-N-(tetrahydrofuran-3-yl)pyridine-2-carboxamide]
The IC50 of the first is lower: less than 100 nM for the first, 100 to 1000 nM for the second.

Cc1cc(Nc2nccc(C(F)(F)F)n2)cc(-c2ccc(C(O)C(F)(F)C(=O)O)nc2)c1 (stereo not drawn) [Example 24.2, 2,2-Difluoro-3-hydroxy-3-[5-(3-methyl-5-{[4-(trifluoromethyl)pyrimidin-2-yl]amino}phenyl)pyridin-2-yl]propanoic acid] and Cc1cc(Nc2nccc(C(F)(F)F)n2)cc(-c2ccc(N[C@H](Cc3c[nH]cn3)C(=O)O)nc2)c1 [Example 7.73, N-[5-(3-methyl-5-{[4-(trifluoromethyl)pyrimidin-2-yl]amino}phenyl)pyridin-2-yl]-D-histidine] cannot be ordered by IC50: less than 100 nM for the first, less than 100 nM for the second.

First: Cc1cc(Nc2nccc(C(F)(F)F)n2)cc(-c2ccc(C(=O)N3CC[S+]([O-])CC3)nc2)c1 [Example 16.49, N-(3-methyl-5-{6-[(1-oxidothiomorpholin-4-yl)carbonyl]pyridin-3-yl}phenyl)-4-(trifluoromethyl)pyrimidin-2-amine]
Second: Cc1cc(Nc2nccc(C(F)(F)F)n2)cc(-c2ccc(N3CCC4(CCCCN4)CC3)nc2)c1 [Example 7.10, N-{3-[6-(1,9-diazaspiro[5.5]undec-9-yl)pyridin-3-yl]-5-methylphenyl}-4-(trifluoromethyl)pyrimidin-2-amine]
The IC50 of the first is lower: less than 100 nM for the first, 100 to 1000 nM for the second. The first is the more potent here.

Compared with CNC(=O)CCNc1cc(-c2cc(C)cc(Nc3nccc(C(F)(F)F)n3)c2)ccn1 [Example 15.78, N-methyl-N~3~-[4-(3-methyl-5-{[4-(trifluoromethyl)pyrimidin-2-yl]amino}phenyl)pyridin-2-yl]-beta-alaninamide], CCCOC1CCCN(c2cc(-c3cc(C)cc(Nc4nccc(C(F)(F)F)n4)c3)ccn2)C1 (stereo not drawn) [Example 15.79, N-{3-methyl-5-[2-(3-propoxypiperidin-1-yl)pyridin-4-yl]phenyl}-4-(trifluoromethyl)pyrimidin-2-amine] is higher in IC50: 100 to 1000 nM for the first, 1000 to 10000 nM for the second.

In the case of Cc1cc(Nc2nccc(C(F)(F)F)n2)cc(-c2ccc(N[C@@H](Cc3c[nH]cn3)C(=O)O)nc2)c1 [Example 7.112, N-[5-(3-methyl-5-{[4-(trifluoromethyl)pyrimidin-2-yl]amino}phenyl)pyridin-2-yl]-L-histidine], the IC50 is reported as less than 100 nM.
